According to patent publication US20260294922A1, “Inhibitors of JUN N-Terminal Kinases (JNK1, JNK2, and/or JNK3) and Mitogen-Activated Protein Kinases (MAPK8, MAPK9, and/or MAPK10) and Methods of Using Same” (Baylor College of Medicine, priority 2023, published 2026):
Converted amounts (≈) assume the structure as drawn. “Also recorded” adds a separate entry of the source. Like-named read-outs stand apart in the source and are kept apart here.

What was measured:
[1] = cited from earlier work; for clinical safety: Phase 1 volunteers / IPF
LATS1 [2] = target: T1, LATS1 (Homo sapiens, UniProt O95835); test: ThermoFisher Z'Lyte assay, LATS1; assay type: biochemical
Description: Inhibition of LATS1 was not confirmed in a subsequent ThermoFisher Z'Lyte assay.

LATS1 [3] = target: T1, LATS1; test: KINOMEscan, LATS1; assay type: binding; settings: 1 μM
[4] = test system: immortalized human endometriotic epithelial cells (iHEEC); test: Phosphorylation of JNK and Jun in iHEEC; assay type: cell-based
Description: FIG. 26A depicts the effects of CDD-2728 and CDD-3013 on phosphorylation of the JNK enzyme itself (i.e., representing MEK4 inhibition) and phosphorylation of pSer63 and pSer73 on the transcription factor Jun in immortalized human endometriotic epithelial cells (iHEEC). The HEEC cells are a well characterized cell line that are relevant for the evaluation of inflammatory endpoints and measures of epithelial-to-mesenchymal transitions (EMT). […] This is consistent with the potency relationships of CDD-2728 relative to bentamapimod observed in cytokine gene expression described above in iHEEC cells and primary human stromal endometriotic cells. […] SP600125 has been frequently described as a poorly-selective JNK-I but in this context provides additional confirmation of inhibition of the JNK target kinase for CDD-2728. […] This adds further support to the critical role of JNK-1 to the therapeutic effect of the JNK inhibitors of the disclosure.

Other MAPK = test: Eurofins KdSelect, other MAPK; assay type: binding; settings: Table 2; IC50 nM; read-out: Other MAPK, based on Kd select results
Description: The next step was to confirm that the compounds that bound to JNK1, JNK2 or JNK3 in a competitive manner, relative to bentamapimod, were inhibitors of the ATP-dependent kinase activity in assays. In many cases, the results have been replicated at ThermoFisher using their SelectScreen technology platform. Based on knowledge about JNK inhibitors, and the results of DEC-Tec selections, a target compound profile was developed (Table 2).
The efficacy and selectivity of BEND and TANZ were used to define a realistic preliminary target compound profile (Table 2) for the next generation of JNK1-3 inhibitors for the treatment of endometriosis.

JNK1 [5] = target: T2, JNK1 (Homo sapiens, UniProt P45983); test: Promega NanoBRET intracellular target engagement (tracer K10 displacement), JNK1; assay type: cell-based
JNK1 [6] = target: T2, JNK1; test: JNK1 biochemical assay (piperazine series)
Description: FIG. 21B depicts concentration-dependent inhibition of JNK1 with CDD-1722 and CDD-1723. Components of CDD-1722 and CD-1723 represent alternative building blocks which may be incorporated during optimization of pharmaceutical properties of JNK-I.

JNK2 [7] = target: T3, JNK2 (Homo sapiens, UniProt P45984); test: Promega NanoBRET intracellular target engagement (tracer K10 displacement), JNK2; assay type: cell-based
JNK3 [8] = target: T4, JNK3 (Homo sapiens, UniProt P53779); test: Promega NanoBRET intracellular target engagement (tracer K10 displacement), JNK3; assay type: cell-based
JNK3 [9] = target: T4, JNK3; test: ThermoFisher SelectScreen, JNK3; assay type: binding
MEK5 = target: T5, MEK5 (Homo sapiens, UniProt Q13163); test: ThermoFisher SelectScreen, MEK5; assay type: binding; settings: Table 4
T5 construct: purchased ThermoFisher (SelectScreen, outsourced service)
T5 sequence (Q13163 1-448): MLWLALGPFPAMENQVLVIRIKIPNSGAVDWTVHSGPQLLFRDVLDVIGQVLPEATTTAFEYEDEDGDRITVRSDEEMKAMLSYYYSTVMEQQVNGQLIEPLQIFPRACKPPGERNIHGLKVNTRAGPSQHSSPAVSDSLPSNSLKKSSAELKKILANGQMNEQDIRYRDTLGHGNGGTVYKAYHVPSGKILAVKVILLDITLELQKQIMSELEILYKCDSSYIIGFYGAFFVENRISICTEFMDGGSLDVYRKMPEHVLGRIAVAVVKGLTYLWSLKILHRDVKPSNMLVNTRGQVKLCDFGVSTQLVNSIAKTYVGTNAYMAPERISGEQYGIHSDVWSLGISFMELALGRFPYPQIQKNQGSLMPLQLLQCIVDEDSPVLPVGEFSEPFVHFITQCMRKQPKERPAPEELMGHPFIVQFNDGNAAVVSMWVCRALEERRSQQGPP
Protocol: (§1) To mitigate violation of the linear initial velocity principle, which is a problem in end-point assays when doing dose-responses, the enzyme concentration was carefully optimized, in a total assay volume of 25 μL. The assay was performed using 10 μM ATP, 0.02% Tween-20, kinase buffer from Cell Signaling (#9802) in white 384-well plates. The kinase reaction was done for 30 or 60 min at 30° C., and detection of leftover ATP was measured according to Promega's protocol. […] Fractional activities were obtained from normalized data. Non-linear regression (GraphPad Prism7) and a modified Morrison equation for tight binding was used to determine apparent Ki values for inhibitors, assuming no particular mode of inhibition. An orthogonal binding assay (LanthaScreen) was outsourced to ThermoFisher Scientific's SelectScreen Services to determine IC50 values.
(§2) One of the earliest compounds to be synthesized with favorable enzymatic activity towards JNK1 and JNK3 was CDD-2346. A KINOMEscan was performed for CDD-2346 to establish whether the selectivity of this chemical scaffold was suitable or required optimization. […] To confirm that the activity against each kinase was a true result and not a false positive, CDD-2346 was evaluated in kinase assays using ThermoFisher SelectScreen platform. The results from these assays are provided herein (Table 4). The important innovative steps described are the optimization of selectivity a) for JNK isoforms; b) for kinases considered “in-pathway”; and c) to avoid kinases considered “out-of-pathway”.

CSNK1E = target: T6, CSNK1E (Homo sapiens, UniProt P49674); test: ThermoFisher SelectScreen, CSNK1E; assay type: binding
T6 construct: purchased ThermoFisher (SelectScreen)

MEK4 = target: T7, MEK4 (Homo sapiens, UniProt P45985); test: ThermoFisher SelectScreen, MEK4; assay type: binding
T7 construct: purchased ThermoFisher (SelectScreen)
T7 sequence (P45985 1-399): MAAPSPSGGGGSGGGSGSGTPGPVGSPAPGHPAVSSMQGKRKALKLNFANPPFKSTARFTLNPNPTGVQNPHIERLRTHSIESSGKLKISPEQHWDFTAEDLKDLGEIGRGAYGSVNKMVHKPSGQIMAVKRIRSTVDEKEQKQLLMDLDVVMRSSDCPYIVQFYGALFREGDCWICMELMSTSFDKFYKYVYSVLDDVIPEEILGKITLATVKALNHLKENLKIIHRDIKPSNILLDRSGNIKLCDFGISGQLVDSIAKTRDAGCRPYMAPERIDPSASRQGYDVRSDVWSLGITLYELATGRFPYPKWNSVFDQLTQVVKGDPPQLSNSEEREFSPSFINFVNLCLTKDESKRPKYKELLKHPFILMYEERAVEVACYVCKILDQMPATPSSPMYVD

hVPS34 = target: T8, hVPS34 (Homo sapiens, UniProt Q8NEB9); test: ThermoFisher SelectScreen, hVPS34; assay type: binding; settings: Table 4
T8 construct: purchased ThermoFisher (SelectScreen, outsourced service)
Protocol: as §1, §2

[10] = In vitro metabolism in mouse liver microsomes; settings: mouse, microsomes
Protocol: (§3) The target product profile seeks to deliver JNK inhibitor as a once daily oral administration. To prioritize compounds for further development, in vitro metabolism of several CDD JNK inhibitors were determined to approximate the plasma half-life and the rate of metabolism of the compounds in vivo.

[11] = In vitro metabolism in human liver microsomes; settings: human, microsomes
Protocol: as §3

JNK2 [12] = target: T3, JNK2; test: JNK2 kinase (intrinsic ATPase, Kinase-Glo) assay; assay type: biochemical
JNK1 [13] = target: T2, JNK1; test: JNK1 kinase (intrinsic ATPase, Kinase-Glo) assay; assay type: biochemical
How it was run: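 Full-length construct not stated; kinases hydrolyse ATP without peptide substrate, reaction run 30 or 60 min at 30° C, remaining ATP read by Kinase-Glo luminescence with no-kinase controls. Apparent Ki from normalized fractional activities fitted to modified Morrison tight-binding equation; orthogonal LanthaScreen binding assay gave IC50.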

JNK3 [14] = target: T4, JNK3; test: JNK3 kinase (intrinsic ATPase, Kinase-Glo) assay; assay type: biochemical
CSNK1G1 = target: T9, CSNK1G1 (Homo sapiens, UniProt Q9HCP0); test: ThermoFisher SelectScreen, CSNK1G1; assay type: binding; settings: Table 4
T9 construct: purchased ThermoFisher (SelectScreen)
Protocol: as §1, §2
No activity of CDD-2728 was detected for Atypical, Mutant, or Lipid kinases. To confirm CDD-2728 inhibition results in the KINOMEscan analysis, individual binding assays were performed on the kinases to which CDD-2728 bound using ThermoFisher SelectScreen.

CSNK1D = target: T10, CSNK1D (Homo sapiens, UniProt P48730); test: ThermoFisher SelectScreen, CSNK1D; assay type: binding
T10 construct: purchased ThermoFisher (SelectScreen)

CLK2 = target: T11, CLK2 (Homo sapiens, UniProt P49760); test: ThermoFisher SelectScreen, CLK2; assay type: binding
T11 construct: purchased ThermoFisher (SelectScreen)

HepG2 cells = test: HepG2 cell viability (ATP consumption); settings: CDD-2575 25 μM; CDD-2728, CDD-2624 up to 75
Protocol: This assay reflects cell viability. […] To determine if the responses observed in endometriotic epithelial cells and endometriotic stromal cell cultures were cytotoxic, cell viability was performed in HepG2 cells.

T2 sequence (P45983 whole entry): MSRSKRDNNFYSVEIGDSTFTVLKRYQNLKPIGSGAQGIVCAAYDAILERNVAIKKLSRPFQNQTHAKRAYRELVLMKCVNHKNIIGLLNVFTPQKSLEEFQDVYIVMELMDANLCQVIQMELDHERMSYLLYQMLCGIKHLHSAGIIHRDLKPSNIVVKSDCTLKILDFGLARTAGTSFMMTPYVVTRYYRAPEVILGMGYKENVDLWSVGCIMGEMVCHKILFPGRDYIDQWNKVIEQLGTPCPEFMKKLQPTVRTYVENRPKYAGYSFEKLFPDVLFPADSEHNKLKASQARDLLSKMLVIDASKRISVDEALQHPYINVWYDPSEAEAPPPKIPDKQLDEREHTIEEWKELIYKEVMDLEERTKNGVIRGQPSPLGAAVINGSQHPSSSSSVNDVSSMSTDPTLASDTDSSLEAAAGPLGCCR
T4 sequence (P53779 whole entry): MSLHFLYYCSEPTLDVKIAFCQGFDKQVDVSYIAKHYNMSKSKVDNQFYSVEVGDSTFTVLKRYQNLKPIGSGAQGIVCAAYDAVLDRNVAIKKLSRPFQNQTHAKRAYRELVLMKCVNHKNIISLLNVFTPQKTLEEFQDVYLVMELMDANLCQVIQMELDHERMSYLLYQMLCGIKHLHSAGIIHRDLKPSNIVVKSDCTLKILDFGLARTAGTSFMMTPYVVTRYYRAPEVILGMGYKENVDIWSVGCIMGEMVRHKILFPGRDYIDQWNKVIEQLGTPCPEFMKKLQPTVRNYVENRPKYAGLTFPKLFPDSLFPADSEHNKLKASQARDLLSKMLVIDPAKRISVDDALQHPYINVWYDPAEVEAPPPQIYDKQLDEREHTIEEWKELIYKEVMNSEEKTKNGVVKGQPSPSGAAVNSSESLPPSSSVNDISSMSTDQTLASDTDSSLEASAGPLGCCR
T3 sequence (P45984 whole entry): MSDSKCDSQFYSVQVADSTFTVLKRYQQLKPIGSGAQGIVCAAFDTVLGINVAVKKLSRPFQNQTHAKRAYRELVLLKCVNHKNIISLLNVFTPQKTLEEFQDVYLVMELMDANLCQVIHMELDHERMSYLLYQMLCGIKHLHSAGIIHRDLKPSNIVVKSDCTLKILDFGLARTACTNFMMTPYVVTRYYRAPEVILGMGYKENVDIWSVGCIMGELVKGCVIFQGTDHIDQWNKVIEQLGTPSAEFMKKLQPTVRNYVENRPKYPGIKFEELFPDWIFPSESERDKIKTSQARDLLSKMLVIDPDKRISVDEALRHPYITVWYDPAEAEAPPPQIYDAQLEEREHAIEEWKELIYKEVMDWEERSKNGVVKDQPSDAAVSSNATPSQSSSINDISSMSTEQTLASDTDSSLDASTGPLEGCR
T8 sequence (Q8NEB9 whole entry): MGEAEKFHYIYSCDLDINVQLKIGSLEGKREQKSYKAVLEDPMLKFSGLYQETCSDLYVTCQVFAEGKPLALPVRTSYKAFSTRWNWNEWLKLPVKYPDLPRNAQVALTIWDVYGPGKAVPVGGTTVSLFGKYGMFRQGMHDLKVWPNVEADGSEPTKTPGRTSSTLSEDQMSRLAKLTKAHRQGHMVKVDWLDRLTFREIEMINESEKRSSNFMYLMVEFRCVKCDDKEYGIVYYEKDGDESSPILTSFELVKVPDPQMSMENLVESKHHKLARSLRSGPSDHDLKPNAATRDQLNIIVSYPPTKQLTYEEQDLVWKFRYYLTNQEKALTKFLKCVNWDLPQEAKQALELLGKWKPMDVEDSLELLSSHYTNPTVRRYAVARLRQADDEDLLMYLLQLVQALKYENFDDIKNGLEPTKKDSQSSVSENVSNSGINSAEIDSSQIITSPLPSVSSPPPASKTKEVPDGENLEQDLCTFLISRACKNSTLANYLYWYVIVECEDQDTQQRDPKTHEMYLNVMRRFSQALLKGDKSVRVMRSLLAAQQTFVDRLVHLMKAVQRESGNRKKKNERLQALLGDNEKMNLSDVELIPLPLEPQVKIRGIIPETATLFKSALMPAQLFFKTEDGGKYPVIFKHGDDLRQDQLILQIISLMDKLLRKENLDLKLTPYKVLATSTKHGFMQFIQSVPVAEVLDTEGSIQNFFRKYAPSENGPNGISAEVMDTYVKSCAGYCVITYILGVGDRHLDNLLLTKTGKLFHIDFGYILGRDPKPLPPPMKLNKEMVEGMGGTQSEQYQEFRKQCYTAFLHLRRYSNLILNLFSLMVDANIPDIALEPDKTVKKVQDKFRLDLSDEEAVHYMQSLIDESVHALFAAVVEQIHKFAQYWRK
T1 sequence (O95835 whole entry): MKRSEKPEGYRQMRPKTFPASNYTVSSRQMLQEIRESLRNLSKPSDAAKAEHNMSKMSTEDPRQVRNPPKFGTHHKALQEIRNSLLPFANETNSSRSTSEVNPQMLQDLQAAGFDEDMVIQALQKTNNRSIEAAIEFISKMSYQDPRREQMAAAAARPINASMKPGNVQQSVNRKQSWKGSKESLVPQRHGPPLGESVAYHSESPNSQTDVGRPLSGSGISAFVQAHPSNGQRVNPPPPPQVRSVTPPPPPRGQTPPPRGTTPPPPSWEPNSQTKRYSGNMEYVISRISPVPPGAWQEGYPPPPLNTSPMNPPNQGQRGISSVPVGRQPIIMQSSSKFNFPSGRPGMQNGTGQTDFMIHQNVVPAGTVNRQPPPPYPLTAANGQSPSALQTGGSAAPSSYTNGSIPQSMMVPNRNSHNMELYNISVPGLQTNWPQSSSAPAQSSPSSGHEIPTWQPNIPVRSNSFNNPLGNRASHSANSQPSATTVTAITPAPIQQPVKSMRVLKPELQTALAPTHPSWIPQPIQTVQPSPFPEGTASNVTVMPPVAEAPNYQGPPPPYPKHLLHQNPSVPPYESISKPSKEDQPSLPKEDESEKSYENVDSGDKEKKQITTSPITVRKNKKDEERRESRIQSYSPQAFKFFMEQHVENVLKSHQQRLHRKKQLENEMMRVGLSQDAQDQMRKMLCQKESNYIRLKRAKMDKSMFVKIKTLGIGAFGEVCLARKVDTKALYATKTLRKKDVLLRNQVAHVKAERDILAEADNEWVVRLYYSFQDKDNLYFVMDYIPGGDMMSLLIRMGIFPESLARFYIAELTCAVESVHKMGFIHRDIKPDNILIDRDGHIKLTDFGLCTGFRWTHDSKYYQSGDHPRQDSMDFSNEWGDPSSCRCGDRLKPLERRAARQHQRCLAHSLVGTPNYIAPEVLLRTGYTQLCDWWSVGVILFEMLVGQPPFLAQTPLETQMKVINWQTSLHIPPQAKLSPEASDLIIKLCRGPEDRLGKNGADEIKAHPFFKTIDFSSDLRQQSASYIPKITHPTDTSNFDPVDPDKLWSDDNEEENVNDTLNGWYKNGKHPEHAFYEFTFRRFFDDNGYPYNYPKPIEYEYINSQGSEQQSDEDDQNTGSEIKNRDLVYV
T9 sequence (Q9HCP0 whole entry): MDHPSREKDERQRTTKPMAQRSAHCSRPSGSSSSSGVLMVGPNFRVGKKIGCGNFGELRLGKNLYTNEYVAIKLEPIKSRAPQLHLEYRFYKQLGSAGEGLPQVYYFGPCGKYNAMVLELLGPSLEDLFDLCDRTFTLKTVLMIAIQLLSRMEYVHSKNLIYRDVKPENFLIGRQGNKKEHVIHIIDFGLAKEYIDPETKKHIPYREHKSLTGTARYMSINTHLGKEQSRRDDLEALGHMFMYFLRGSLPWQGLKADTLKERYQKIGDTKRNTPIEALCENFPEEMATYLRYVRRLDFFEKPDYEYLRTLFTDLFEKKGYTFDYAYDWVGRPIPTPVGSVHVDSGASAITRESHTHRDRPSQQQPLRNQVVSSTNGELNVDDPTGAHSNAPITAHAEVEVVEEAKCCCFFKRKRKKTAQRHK
T10 sequence (P48730 whole entry): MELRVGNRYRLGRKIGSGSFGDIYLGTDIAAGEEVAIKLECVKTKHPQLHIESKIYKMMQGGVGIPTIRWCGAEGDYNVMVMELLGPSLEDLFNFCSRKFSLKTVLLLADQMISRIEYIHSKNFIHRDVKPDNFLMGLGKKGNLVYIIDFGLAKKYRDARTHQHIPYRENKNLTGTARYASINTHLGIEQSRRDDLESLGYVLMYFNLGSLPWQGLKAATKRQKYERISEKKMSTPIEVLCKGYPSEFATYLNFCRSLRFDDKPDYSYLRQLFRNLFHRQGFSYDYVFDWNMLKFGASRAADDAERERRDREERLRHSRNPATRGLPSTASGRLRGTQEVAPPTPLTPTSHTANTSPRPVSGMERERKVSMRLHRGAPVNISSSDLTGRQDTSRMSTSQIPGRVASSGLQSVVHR
T6 sequence (P49674 whole entry): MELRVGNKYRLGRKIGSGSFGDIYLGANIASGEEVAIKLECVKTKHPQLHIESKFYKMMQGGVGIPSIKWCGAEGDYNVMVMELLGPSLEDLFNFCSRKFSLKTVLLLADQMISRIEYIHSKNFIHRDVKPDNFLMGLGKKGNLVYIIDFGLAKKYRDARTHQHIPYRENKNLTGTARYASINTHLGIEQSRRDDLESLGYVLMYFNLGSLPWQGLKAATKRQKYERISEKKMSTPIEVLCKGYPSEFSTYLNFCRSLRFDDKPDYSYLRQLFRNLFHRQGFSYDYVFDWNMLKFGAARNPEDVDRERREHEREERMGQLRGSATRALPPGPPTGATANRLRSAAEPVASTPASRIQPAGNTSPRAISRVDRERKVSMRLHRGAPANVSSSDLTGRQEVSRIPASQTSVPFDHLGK

IC50 (JNK1 [5]) | IC50 (JNK2 [7]) | IC50 (JNK3 [8]) | solubility (Solubility) | Kd (JNK3 [9]) | Kd (MEK4) | Kd (hVPS34) | half-life [10] | half-life [11] | Kd (JNK2 [12]; Table 3a, read-out: Kd JNK2) | Kd (JNK1 [13]) | Kd (JNK3 [14]; Table 3a, read-out: Kd JNK3) | SMILES | further results
– | – | – | – | – | – | – | – | – | – | – | – | O[C@H]1CC[C@H](Nc2ncc3nc(Nc4c(F)cc(F)cc4F)n([C@H]4CCOC4)c3n2)CC1 [CDD-985, tanzisertib] | effect in preclinical IPF models and human IPF patients ([1]; IPF): reduced inflammation, EMT, and fibrosis; clinical safety ([1]; listed as TANZ): adverse liver effect; clinical safety ([1]; listed as Tanzisertib): deemed safe; LATS1 inhibition in Z'Lyte assay (LATS1 [2]): not confirmed; LATS1 inhibition in KINOMEscan (LATS1 [3]): weakly inhibited; phosphorylation of Jun at pSer63 and pSer73 [4]: lack of efficacy; Kd (Other MAPK): > 1000 nM
24000 nM | 32000 nM | 38000 nM | – | – | – | – | – | – | – | – | – | CNC(=O)CN1[C@H](CCNC(=O)OCc2ccccc2)CN(Cc2cccc3ccnn23)C[C@H]1CC(=O)NCCCN(C)c1ccc(F)cc1 [CDD-1723, benzyl (2-((2R,6R)-6-(2-((3-((4-fluorophenyl)(methyl)amino)propyl)amino)-2-oxoethyl)-1-(2-(methylamino)-2-oxoethyl)-4-(pyrazolo[1,5-a]pyridin-7-ylmethyl)piperazin-2-yl)ethyl)carbamate] | JNK1 inhibition (JNK1 [6]; in words): good inhibition of JNK1
– | – | – | – | – | – | – | – | – | – | – | – | CNC(=O)CN1[C@@H](CCNC(=O)OCc2ccccc2)CN(Cc2cccc3ccnn23)C[C@@H]1CC(=O)NCCCN(C)c1ccc(F)cc1 [CDD-2009, benzyl (2-((2S,6S)-6-(2-((3-((4-fluorophenyl)(methyl)amino)propyl)amino)-2-oxoethyl)-1-(2-(methylamino)-2-oxoethyl)-4-(pyrazolo[1,5-a]pyridin-7-ylmethyl)piperazin-2-yl)ethyl)carbamate] | JNK1 activity relative to CDD-1723 (fold less active) (JNK1 [6]; enantiomer comparison): 20 fold
– | – | – | 254 µM (≈ 94.8 µg/mL) | 8.4 nM | 262 nM | 130 nM | 2.01 h | 2.04 h | 28.8 ± 1.8 nM | 2.96 ± 0.32 nM | 8.44 ± 0.66 nM | CNCc1ccc(NC(=O)c2ccn3ncc(-c4cnc(N)nc4)c3c2)cc1 [CDD-2387, 3-(2-aminopyrimidin-5-yl)-N-(4-((methylamino)methyl)phenyl)pyrazolo[1,5-a]pyridine-5-carboxamide] | Kd (MEK5): 40700 nM; Kd (CSNK1E): 2660 nM
– | – | – | 2.5 µM (≈ 1.28 µg/mL) | 1.41 nM | 60.2 nM | 38000 nM | 0.26 h | 0.213 h | – | 0.28 nM | – | COc1ccc(NC(=O)c2cc3c(-c4cnc5[nH]ccc5c4)cccc3s2)cc1C(=O)N1CCCCC1 [CDD-2491, N-(4-methoxy-3-(piperidine-1-carbonyl)phenyl)-4-(1H-pyrrolo[2,3-b]pyridin-5-yl)benzo[b]thiophene-2-carboxamide] | Kd (CSNK1G1): 95000 nM; Kd (CSNK1D): 8350 nM; Kd (CLK2): 1170 nM; Kd (JNK2 [12]): 0.43 ± 0.09 nM; Kd (JNK3 [14]): 1.41 ± 0.12 nM
2200 nM | 2300 nM | 4800 nM | 40.6 µM (≈ 16.7 µg/mL) | – | – | – | 1.95 h | 6.81 h | 1.76 ± 0.15 nM | 1.15 ± 0.28 nM | 2.76 ± 0.51 nM | CNCc1ccc(NC(=O)c2cc3c(-c4cnc5[nH]ccc5c4)cccc3s2)cc1 [CDD-2575, N-(4-((methylamino)methyl)phenyl)-4-(1H-pyrrolo[2,3-b]pyridin-5-yl)benzo[b]thiophene-2-carboxamide] | effect on HepG2 cell viability / ATP consumption (HepG2 cells): non-specific decreases in cell viability were pronounced for CDD-2575 at 25 μM; also recorded: reduced ATP consumption
